Laboratory results: publication PMC12207590, “Substrate Specificity of the Organic Cation Transporters MATE1 and MATE2K and Functional Overlap with OCT1 and OCT2” (Journal of Medicinal Chemistry, 2025)
Read-outs that look alike come from different tables or passages of the source.

Tests used:
[1] = target: T1, MATE1 (Homo sapiens, UniProt Q96FL8); test: Uptake ratio in MATE1-overexpressing HEK293 cells vs empty vector (2.5 μM, 1 min, HPLC-MS/MS); type: cell-based; conditions: for MATE1 ratio in this study: Table S1
T1 sequence (Q96FL8 1-570): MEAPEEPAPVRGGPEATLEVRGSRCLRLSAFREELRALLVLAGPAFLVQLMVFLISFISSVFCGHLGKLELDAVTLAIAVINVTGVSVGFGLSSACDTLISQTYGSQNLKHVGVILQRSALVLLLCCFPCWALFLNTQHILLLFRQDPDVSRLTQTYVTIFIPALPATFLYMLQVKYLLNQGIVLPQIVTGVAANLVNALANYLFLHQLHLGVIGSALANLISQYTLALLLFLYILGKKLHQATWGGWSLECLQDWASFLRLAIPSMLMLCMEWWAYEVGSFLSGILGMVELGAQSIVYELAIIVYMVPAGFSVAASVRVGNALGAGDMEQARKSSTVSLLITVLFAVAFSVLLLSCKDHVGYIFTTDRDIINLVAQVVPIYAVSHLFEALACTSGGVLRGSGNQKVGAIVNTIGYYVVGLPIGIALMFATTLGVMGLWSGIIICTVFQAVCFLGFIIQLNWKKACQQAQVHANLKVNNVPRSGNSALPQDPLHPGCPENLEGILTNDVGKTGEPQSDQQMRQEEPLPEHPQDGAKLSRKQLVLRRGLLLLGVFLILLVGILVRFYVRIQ

[2] = target: MATE2K (Homo sapiens, UniProt Q86VL8); test: Uptake ratio in MATE2K-overexpressing HEK293 cells vs empty vector (2.5 μM, 1 min, HPLC-MS/MS); type: cell-based; conditions: for MATE2K ratio in this study: Table S1
Sequence of MATE2K (Q86VL8 1-566 isoform Q86VL8-3): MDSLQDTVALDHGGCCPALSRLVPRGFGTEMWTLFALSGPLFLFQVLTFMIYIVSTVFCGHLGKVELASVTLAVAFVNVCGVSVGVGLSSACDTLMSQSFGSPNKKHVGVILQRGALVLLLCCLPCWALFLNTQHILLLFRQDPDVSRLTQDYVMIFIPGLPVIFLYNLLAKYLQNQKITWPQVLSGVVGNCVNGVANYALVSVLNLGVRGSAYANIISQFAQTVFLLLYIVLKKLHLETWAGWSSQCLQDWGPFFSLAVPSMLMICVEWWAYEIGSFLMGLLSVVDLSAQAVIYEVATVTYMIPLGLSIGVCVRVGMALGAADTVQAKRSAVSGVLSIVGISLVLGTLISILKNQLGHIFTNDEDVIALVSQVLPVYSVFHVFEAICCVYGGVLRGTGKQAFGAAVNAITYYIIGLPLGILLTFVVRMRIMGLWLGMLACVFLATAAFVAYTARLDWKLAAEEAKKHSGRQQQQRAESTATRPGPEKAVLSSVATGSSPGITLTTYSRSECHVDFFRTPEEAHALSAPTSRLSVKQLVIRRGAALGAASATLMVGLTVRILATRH

[3] = fold uptake over empty vector, 2.5 μM, 1 min
[4] = mean ratio of uptake in MATE1-overexpressing HEK293 cells vs empty vector, 2.5 μM, 1 min
[5] = mean ratio of uptake in MATE2K-overexpressing HEK293 cells vs empty vector, 2.5 μM, 1 min
[6] = uptake ratio MATE1-overexpressing vs empty-vector HEK293 cells, 2.5 μM, 1 min, mean
[7] = uptake ratio MATE2K-overexpressing vs empty-vector HEK293 cells, 2.5 μM, 1 min, mean

Compound: CC(N)[C@H](O)c1ccc(O)c(O)c1 (stereo partly drawn) [Alpha-methylnorepinephrine (-), Alpha-methylnorepinephrine]
- MATE1 (uptake ratio) [1]: 1.85
- MATE1 ratio [1]: 1.85
- MATE2 (uptake ratio) [2]: 0.72
- MATE2K ratio [2]: 0.72

Compound: OCCN1CCN(CCCN2c3ccccc3Sc3ccc(Cl)cc32)CC1 [Perphenazine]
- MATE1 ratio [1, 3]: 1.09
- MATE2K ratio [2, 3]: 0.94

Compound: CNCCc1c[nH]c2ccc(O)cc12 [N-Methylserotonin]
- MATE1 ratio [1]: 26.34
- MATE2K ratio [2]: 8.85

Compound: NCCCCN=C(N)N [Agmatine]
- MATE1 ratio in this study ([1]; 2.5 μM, 1 min): 1.08
- MATE1 ratio [1, 3]: 1.08
- MATE1 (uptake ratio) [1, 4]: 1.08
- MATE2K ratio in this study ([2]; 2.5 μM, 1 min): 1.05
- MATE2K ratio [2, 3]: 1.05
- MATE2 (uptake ratio) [2, 5]: 1.05

Compound: CNCCc1ccc(O)cc1 [N-Methyl-p-Tyramine]
- MATE1 ratio [1]: 3.11
- MATE2K ratio [2]: 1.39

Compound: CCNCC(O)c1cccc(O)c1 (stereo not drawn) [Etilefrine]
- MATE1 ratio [1, 3]: 9.81
- MATE2K ratio [2, 3]: 2.04

Compound: NCCCCN [Putrescine]
- MATE1 ratio [1, 3]: 0.36
- MATE1 [1, 6]: 0.36
- MATE2K ratio [2, 3]: 0.48
- MATE2 [2, 7]: 0.48

Compound: NCC(O)c1cccc(O)c1 (stereo not drawn) [Norphenylephrine]
- MATE1 ratio [1, 3]: 26.13
- MATE2K ratio [2, 3]: 1.22

Compound: CCc1nc(N)nc(N)c1-c1ccc(Cl)cc1 [Pyrimethamine]
- MATE1 ratio [1, 3]: 1.17
- MATE1 [1, 6]: 1.17
- MATE2K ratio [2, 3]: 1.10
- MATE2 [2, 7]: 1.1

Compound: CC(C)[N+](C)(CCOC(=O)C1c2ccccc2Oc2ccccc21)C(C)C [Propantheline]
- MATE1 ratio [1, 3]: 10.16
- MATE1 [1, 6]: 10.16
- MATE2K ratio [2, 3]: 5.77
- MATE2 [2, 7]: 5.77

Compound: CNC(=O)c1cccnc1 [Methylnicotinamide, N-Methylnicotinamide]
- MATE1 ratio in this study ([1]; 2.5 μM, 1 min): 33.89
- MATE1 ratio [1, 3]: 33.89
- MATE2K ratio in this study ([2]; 2.5 μM, 1 min): 5.40
- MATE2K ratio [2, 3]: 5.40

Compound: CN(C)c1ccc(C(=C2C=CC(=[N+](C)C)C=C2)c2ccc(N(C)C)cc2)cc1 [Gentian violet]
- MATE1 ratio [1, 3]: 1.40
- MATE2K ratio [2, 3]: 1.05

Compound: CCC(Cc1ccc2c(c1)OCO2)NC (stereo not drawn) [2-Methylamino-1-(3,4-methylendioxyphenyl)butan]
- MATE1 (uptake ratio) [1]: 1.35
- MATE1 ratio [1]: 1.35
- MATE2 (uptake ratio) [2]: 1.24
- MATE2K ratio [2]: 1.24

Compound: CC(C)C(=O)O[C@H](CC(=O)[O-])C[N+](C)(C)C [Isobutyrylcarnitine]
- MATE1 ratio [1, 3]: 1.40
- MATE2K ratio [2, 3]: 1.35

Compound: C[N+]1(C)[C@@H]2C[C@@H](OC(=O)C(O)(c3cccs3)c3cccs3)C[C@H]1[C@@H]1O[C@@H]12 [tiotropium]
- MATE1 [1]: 27.4
- MATE2 [2]: 1.94

Compound: O=P1(NCCCl)OCCCN1CCCl (stereo not drawn) [Ifosfamide]
- MATE1 ratio [1]: 1.24
- MATE2K ratio [2]: 1.17

Compound: NCCCCCN [Cadaverine]
- MATE1 (uptake ratio) [1]: 0.23
- MATE1 ratio [1]: 0.23
- MATE2 (uptake ratio) [2]: 0.53
- MATE2K ratio [2]: 0.53

Compound: OCc1cc(C(O)CNCCCCCCOCCCCc2ccccc2)ccc1O (stereo not drawn) [Salmeterol]
- MATE1 ratio [1, 3]: 1.78
- MATE1 [1, 6]: 1.78
- MATE2K ratio [2, 3]: 1.17
- MATE2 [2, 7]: 1.17

Compound: CN1CCc2cccc3c2[C@H]1Cc1ccc(O)c(O)c1-3 [Apomorphine]
- MATE1 ratio [1, 3]: 1.05
- MATE1 (uptake ratio) [1, 4]: 1.05
- MATE2K ratio [2, 3]: 1.02
- MATE2 (uptake ratio) [2, 5]: 1.02

Compound: COc1cc2ncnc(Nc3ccc(F)c(Cl)c3)c2cc1OCCCN1CCOCC1 [Gefitinib]
- MATE1 ratio [1, 3]: 0.89
- MATE2K ratio [2, 3]: 0.88

Compound: COc1ccccc1OCC(O)CN1CCN(CC(=O)Nc2c(C)cccc2C)CC1 (stereo not drawn) [Ranolazine]
- MATE1 ratio [1, 3]: 1.11
- MATE1 [1, 6]: 1.11
- MATE2K ratio [2, 3]: 1.30
- MATE2 [2, 7]: 1.3

Compound: COc1ccc(C(CN(C)C)C2(O)CCCCC2)cc1 (stereo not drawn) [Venlafaxine]
- MATE1 [1]: 1.22
- MATE2 [2]: 1.3

Compound: CC[N+](C)(CC)CCOC(=O)C(O)(c1ccccc1)C1CCCCC1 (stereo not drawn) [Oxyphenonium]
- MATE1 ratio [1, 3]: 9.89
- MATE2K ratio [2, 3]: 2.04

Compound: N#CC[C@H](C1CCCC1)n1cc(-c2ncnc3[nH]ccc23)cn1 [Ruxolitinib]
- MATE1 ratio [1, 3]: 1.13
- MATE1 [1, 6]: 1.13
- MATE2K ratio [2, 3]: 0.99
- MATE2 [2, 7]: 0.99

Compound: C[C@@H]1O[C@@]2(CS1)CN1CCC2CC1 [Cevimeline]
- MATE1 ratio [1, 3]: 1.59
- MATE1 (uptake ratio) [1, 4]: 1.59
- MATE2K ratio [2, 3]: 1.35
- MATE2 (uptake ratio) [2, 5]: 1.35
